Results taken from EP4748373A1, “PHARMACEUTICAL COMPOSITION CONTAINING HETEROCYCLIC COMPOUND” (Sagimet Biosciences Inc., priority 2023, dated 2025).
≈ marks a conversion by molar mass, not a printed value.

Test: equilibrium solubility experiments in buffer media at different pH conditions
Assay type: physicochemical
Settings: for solubility at 1 h / solubility at 22 h: buffer media, thermodynamic from solid
Text: Additionally, the present invention conducted equilibrium solubility experiments of the monohydrate crystalline API, amorphous API, and hot-melt extrudate dispersion intermediate in buffer media at different pH conditions. Table 3. Summary of equilibrium solubility (µg/ml) of monohydrate crystalline API, amorphous API, and hot-melt extrudate dispersion intermediate

[1] = pH 1.2, simulated gastric fluid, pH 1.2 buffer
[2] = pH 2, simulated gastric fluid, pH 2.0 buffer
[3] = pH 4, aqueous buffer, pH 4.0 buffer
[4] = pH 4.5, aqueous buffer, pH 4.5 buffer
[5] = pH 5, aqueous buffer, pH 5.0 buffer
[6] = pH 6, aqueous buffer, pH 6.0 buffer
[7] = pH 6.8, aqueous buffer, pH 6.8 buffer
[8] = pH 7.5, aqueous buffer, pH 7.5 buffer

SMILES: Cc1nnc(-c2cc(C(=O)N3CCC(c4ccc(C#N)cc4)CC3)c(C)cc2C2CCC2)[nH]1 [Compound of formula (I) (monohydrate crystalline form)] [4-[1-[4-cyclobutyl-2-methyl-5-(5-methyl-1H-1,2,4-triazol-3-yl)benzoyl]piperidin-4-yl]benzonitrile]
- 22-h solubility (pH 3.0 buffer): 0.97 µg/mL

SMILES: Cc1nnc(-c2cc(C(=O)N3CCC(c4ccc(C#N)cc4)CC3)c(C)cc2C2CCC2)[nH]1 [4-[1-[4-cyclobutyl-2-methyl-5-(5-methyl-1H-1,2,4-triazol-3-yl)benzoyl]piperidin-4-yl]benzonitrile]
- solubility at 1 h [1]: 30.3 µg/mL (≈ 68.9 µM)
- solubility at 22 h [1]: 27.2 µg/mL (≈ 61.8 µM)
- solubility at 1 h [2]: 3.57 µg/mL (≈ 8.12 µM)
- solubility at 22 h [2]: 3.22 µg/mL (≈ 7.33 µM)
- solubility at 1 h (pH 3, aqueous buffer, pH 3.0 buffer): 1.07 µg/mL (≈ 2.43 µM)
- solubility at 1 h [3]: 0.68 µg/mL (≈ 1.55 µM)
- solubility at 22 h [3]: 0.6 µg/mL (≈ 1.36 µM)
- solubility at 1 h [4]: 0.6 µg/mL (≈ 1.36 µM)
- solubility at 22 h [4]: 0.59 µg/mL (≈ 1.34 µM)
- solubility at 1 h [5]: 0.47 µg/mL (≈ 1.07 µM)
- solubility at 22 h [5]: 0.51 µg/mL (≈ 1.16 µM)
- solubility at 1 h [6]: 0.5 µg/mL (≈ 1.14 µM)
- solubility at 22 h [6]: 0.45 µg/mL (≈ 1.02 µM)
- solubility at 1 h [7]: 0.44 µg/mL (≈ 1 µM)
- solubility at 22 h [7]: 0.42 µg/mL (≈ 0.955 µM)
- solubility at 1 h [8]: 0.42 µg/mL (≈ 0.955 µM)
- solubility at 22 h [8]: 0.43 µg/mL (≈ 0.978 µM)

SMILES: Cc1nnc(-c2cc(C(=O)N3CCC(c4ccc(C#N)cc4)CC3)c(C)cc2C2CCC2)[nH]1 [Compound of formula (I) (amorphous API), 4-[1-[4-cyclobutyl-2-methyl-5-(5-methyl-1H-1,2,4-triazol-3-yl)benzoyl]piperidin-4-yl]benzonitrile]
- 1-h solubility (pH 1.2 buffer): 50.93 µg/mL
- 22-h solubility (pH 1.2 buffer): 48.62 µg/mL
- 1-h solubility (pH 2.0 buffer): 4.52 µg/mL
- 22-h solubility (pH 2.0 buffer): 4.45 µg/mL
- 1-h solubility (pH 3.0 buffer): 2.14 µg/mL
- 22-h solubility (pH 3.0 buffer): 2.14 µg/mL
- 1-h solubility (pH 4.0 buffer): 0.76 µg/mL
- 22-h solubility (pH 4.0 buffer): 0.74 µg/mL
- 1-h solubility (pH 4.5 buffer): 0.65 µg/mL
- 22-h solubility (pH 4.5 buffer): 0.57 µg/mL
- 1-h solubility (pH 5.0 buffer): 0.51 µg/mL
- 22-h solubility (pH 5.0 buffer): 0.42 µg/mL
- 1-h solubility (pH 6.0 buffer): 0.46 µg/mL
- 22-h solubility (pH 6.0 buffer): 0.44 µg/mL
- 1-h solubility (pH 6.8 buffer): 0.46 µg/mL
- 22-h solubility (pH 6.8 buffer): 0.45 µg/mL
- 1-h solubility (pH 7.5 buffer): 0.54 µg/mL
- 22-h solubility (pH 7.5 buffer): 0.48 µg/mL
